Measured values from patent US12414960B2, “Analogues of oleuropein and oleacein and uses thereof” (Attica Sciences Ltd., priority 2020, dated 2025).

What was measured:
Assay type in all cases: cell-based, human
[1] = system: MIA PaCa-2 pancreatic cancer cells; test: Cell Glo luminescence cell growth assay, MIA PaCa-2; settings: NS = not statistically significant; for Effectiveness to suppress MIA PaCa-2 cell growth (cell growth inhibition): 50 uM, 24 h; for inhibition at 50 µM: Homo sapiens, MIA PaCa-2, 24 h, read-out: Effectiveness to suppress MIA PaCa-2 cell growth (cell growth inhibition)
Excerpt: (§1) The CellTiter-Glo® Luminescent Cell Viability Assay (Promega Corporation; Madison, WI) is a homogeneous method of determining the number of viable cells in culture based on quantitation of the ATP present, an indicator of metabolically active cells. The homogeneous assay procedure involves adding the single reagent (CellTiter-Glo® Reagent) directly to cells cultured in serum-supplemented medium. The homogeneous “add-mix-measure” format results in cell lysis and generation of a luminescent signal proportional to the amount of ATP present. The amount of ATP is directly proportional to the number of cells present in culture.
(§2) Cancer cells (3,000 cells/well) were harvested in a 96-well plate. Then, the cancer cells were treated with GS compounds and incubated for 24 hours. The MT Cell Viability Substrate, NanoLuc® Enzyme and cell culture medium was equilibrated to 37° C. The 2× RealTime-Glo™ reagent was prepared by diluting the MT Cell Viability Substrate and NanoLuc® Enzyme in 37° C. cell culture medium to a 2× concentration for each reagent. For example, 1 mL of 2× RealTime-Glo™ reagent was prepared by adding 2 μL of MT Cell Viability Substrate, 1,000×, and 2 μL of NanoLuc® Enzyme, 1,000×, to 996 μL of cell culture medium to form the 2× RealTime-Glo™ reagent. Then, an equal volume of 2× RealTime-Glo™ reagent was added to the cancer cells. The cells were kept for ˜20 minutes in the cell culture incubator and then luminescence was measured by using a plate-reading luminometer.
MIA PaCa-2 is a human pancreatic ductal adenocarcinoma cell line derived from the carcinoma of a person.
(§3) The effects of exemplary compounds on cancer cell lines and one non-tumorigenic cell line (control) were investigated using a high throughput screening assay. More specifically, the effects of the GS compounds on cell growth was evaluated by the XTT assay for cell lines HepG2, HeLa, MCF7 ER+, MDA-MB-231, and MKN-45, and by the Cell Glo luminescence assay for cell lines MIA PaCa-2, HCT-116, MCF-10A, and PANC-1.

HepG2 liver cancer cells = test: XTT cell growth assay, HepG2; settings: NS = not statistically significant; for inhibition at 50 µM: Homo sapiens, HepG2, 24 h, read-out: Effectiveness to suppress HepG2 cell growth (cell growth inhibition)
Excerpt: The XTT assay is used to measure cellular metabolic activity as an indicator of cell viability, proliferation and cytotoxicity. This non-radioactive, colorimetric assay system was first described by Scudiero, et al. in 1988 (Paull, Kenneth D. et al., J Heterocycl Chem, 1988, 25: 911-914; Scudiero, Dominic A. et al., Cancer Res, 1988, 48: 4827-4833) and improved in subsequent years by several other investigators (Weislow, Owen S. et al., J Natl Cancer Inst, 1989, 81(8): 577-586; Roehm, N. W. et al., J Immunol Methods, 1991, 142: 257-265).
The XTT assay is based on the reduction of a yellow tetrazolium salt (sodium 3′-[1-(phenylaminocarbonyl)-3,4-tetrazolium]-bis (4-methoxy6-nitro) benzene sulfonic acid hydrate or XTT) to an orange formazan dye by metabolically active cells (FIG. 8). The formazan dye formed is soluble in aqueous solutions and is directly quantified using a scanning multiwell spectrophotometer (ELISA reader). An increase in number of living cells results in an increase in the overall activity of mitochondrial dehydrogenases in the sample. This increase directly correlates to the amount of orange formazan formed, as monitored by the absorbance. Reduced number of living cells leads to reduced metabolism of quaternary salt and therefore reduced absorption.
Cell viability was assessed using the XTT assay kit (Roche, Mannheim, Germany) as described previously (Kouka, Paraskevi et al., Oxid Med Cell Longev. 2019, Article ID 1870965). Briefly, cancer cells per well were cultured in a 96-well plate in Dulbecco's modified Eagle's medium (DMEM). Following a 24 h incubation, 5, 10 and 50 μM of the tested GS compound was diluted in a serum-free DMEM and administered for 24 h. Subsequently, 50 μL of the XTT reagent (50:1) was added to each well. After 4 h of incubation, the absorbance was monitored at 450 nm and also at 630 nm as a reference wavelength in a BioTek ELx800 microplate reader (BioTek Instruments Inc., Winooski, VT, USA). As a negative control, samples containing serum-free DMEM only were used.
Hep G2 (or HepG2) is a human liver cancer cell line. Hep G2 is an immortal cell line which was derived from the liver tissue of an adolescent with a well-differentiated hepatocellular carcinoma. Hep G2 cells are a suitable in vitro model system for the study of polarized human hepatocytes.
as §3

[2] = system: HCT-116 colon cancer cells; test: Cell Glo luminescence cell growth assay, HCT-116; settings: NS = not statistically significant; for Effectiveness to suppress HCT-116 cell growth (cell growth inhibition): 1 uM, 24 h; for inhibition at 1 µM: Homo sapiens, HCT-116, 24 h, read-out: Effectiveness to suppress HCT-116 cell growth (cell growth inhibition)
Excerpt: as §1, §2
HCT-116 is a human colorectal cancer cell lines that has a mutation in RAS proto-oncogene.
as §3

[3] = system: MKN-45 gastric cancer cells; test: XTT cell growth assay, MKN-45; settings: NS = not statistically significant; for inhibition at 50 µM: Homo sapiens, MKN-45, 24 h, read-out: Effectiveness to suppress MKN-45 cell growth (cell growth inhibition)

Compound | Effectiveness to suppress MIA PaCa-2 cell growth (cell growth inhibition) [1] | inhibition at 50 µM [1] [%] | inhibition at 50 µM (HepG2 liver cancer cells) [%] | Effectiveness to suppress HCT-116 cell growth (cell growth inhibition) [2] | inhibition at 1 µM [2] [%] | Effectiveness to suppress MKN-45 cell growth (cell growth inhibition) ([3]; 50 uM, 24 h) | inhibition at 50 µM [3] [%] | Effectiveness to suppress HepG2 cell growth (cell growth inhibition) (HepG2 liver cancer cells; 50 uM, 24 h)
C/C=C(/C=O)[C@@H](CC=O)CC(=O)SCCc1ccccc1 [GS27, S-phenethyl (3S,4E)-4-formyl-3-(2-oxoethyl)hex-4-enethioate] | best efficacy | 91 | 40.9 | suppressive activity | 56.5 |  |  | 
C/C=C(/C=O)[C@@H](CC=O)CC(=O)OCCCSC [GS28, (3S,4E)-4-formyl-3-(2-oxoethyl)-4-hexenoic acid 3-(methylthio)propyl ester] | best efficacy | 79 | 69.7 | suppressive activity | 34.4 | highly effective | 95 | best efficacy
C/C=C(/C=O)[C@@H](CC=O)CC(=O)OCCOc1ccccc1 [GS24, (3S,4E)-4-formyl-3-(2-oxoethyl)-4-hexenoic acid 2-phenoxyethyl ester] |  | 28 | 57.9 |  |  |  | 35.4 | 
C/C=C(/C=O)[C@@H](CC=O)CC(=O)OCCc1ccc(O)cc1 [GS19, (3S,4E)-4-formyl-3-(2-oxoethyl)-4-hexenoic acid 2-(4-hydroxyphenyl)ethyl ester, reference compound] |  | 30 |  |  | 21.6 |  | 44.4 | 
C/C=C(/C=O)[C@@H](CC=O)CC(=O)OCCCCCCCCCCCCCCCC [GS26, (3S,4E)-4-formyl-3-(2-oxoethyl)-4-hexenoic acid hexadecyl ester] | best efficacy | 70 | 50 | suppressive activity | 36.3 |  |  | 
